The values that follow are results of earlier work, collected in patent publication US20130243861A1, “PRESS-COATED TABLETS OF PREDNISONE” (CADILA HEALTHCARE LIMITED, priority 2012, published 2013).

Regarding `C[C@]12C=CC(=O)C=C1CC[C@@H]1[C@@H]2C(=O)C[C@@]2(C)[C@H]1CC[C@]2(O)C(=O)CO` [Prednisone, pregna-1,4-diene-3,11,20-trione, 17,21-dihydroxy-], the solubility in water entry was “very slightly soluble”.
